In patent US20170064953A1, “HERBICIDAL COMPOSITIONS CONTAINING 4-AMINO-3-CHLORO-6-(4-CHLORO-2-FLUORO-3-METHOXYPHENYL) PYRIDINE-2-CARBOXYLIC ACID OR A DERIVATIVE THEREOF, A TRIAZOLOPYRIMIDINE SULFONAMIDE HERBICIDE OR A DERIVATIVE THEREOF, AND GLYPHOSATE OR A DERIVATIVE THEREOF” (Dow AgroSciences LLC, priority 2015, published 2017):
Several values for one entry are separate records, joined by “and”; a condition that tells them apart may be missing. Equal entries are not always repeated. Structures can show the parent of a compound that is named as a salt.

Columns and labels:
Experiment in all cases: Field trial, postemergence herbicidal activity, foliar applied, visual rating
Format in all cases: in vivo
[1] = tested on: Commelina benghalensis (hairy wandering Jew, COMBE); conditions: 35DAA, 960 g ai/ha
Method: (§1) Treatments consisted of the methyl ester of 4-amino-3-chloro-6-(4-chloro-2-fluoro-3-methoxyphenyl)pyridine-2-carboxylic acid (Cmpd 1) and diclosulam in combination as GF-3220. […] Glyphosate dimethylammonium salt was applied as various commercial formulations containing 480 grams acid equivalent per liter (g ae/L).
(§2) Field trials were conducted under standard field conditions. Plot sizes varied from 3-4 meters (m) wide by 5-10 m long. Treatments were applied with small plot backpack sprayers, using pressurized carbon dioxide (CO2) as propellant. Pressure varied from 30-50 pounds per square inch (PSI), with spray tips typically of a Flat Fan type applying water diluent at 100-150 liters per hectare (L/ha). Boom sizes varied from 3-4 m in width. Weed sizes varied, but all treatments were applied as post-emergence treatments to weeds from 2 leaf to 2 tiller growth stages varying from 2-15 inches in height. No additional adjuvant was mixed with the treatments applied in the field.
(§3) The weed spectrum included, but was not limited to, Commelina benghalensis (hairy wandering Jew, COMBE), Echinochloa crus-galli (barnyardgrass, ECHCG), Euphorbia heterophylla (wild poinsettia, EPHHL), Conyza bonariensis (hairy fleabane, ERIBO), Conyza canadensis (horseweed, ERICA), Conyza sumatrensis (Guernsey fleabane, ERISU) and Ipomoea grandifolia (Corda-de-viola, IAQGR).
(§4) The values reported are percent (%) control visually rated. The predicted percent (%) weed control was determined using Colby's equation.

[2] = tested on: Conyza bonariensis (hairy fleabane, ERIBO); conditions: 960 g ai/ha
Method: as §1, §2, §3, §4

[3] = tested on: Conyza canadensis (horseweed, ERICA); conditions: 1200 g ai/ha
Method: as §1, §2, §3, §4

[4] = tested on: Conyza sumatrensis (Guernsey fleabane, ERISU); conditions: 1200 g ai/ha
Method: as §1, §2, §3, §4

[5] = tested on: Echinochloa crus-galli (barnyardgrass, ECHCG); conditions: 1200 g ai/ha
Method: as §1, §2, §3, §4

[6] = tested on: Euphorbia heterophylla (wild poinsettia, EPHHL); conditions: 960 g ai/ha
Method: as §1, §2, §3, §4

[7] = tested on: Ipomoea grandifolia (Corda-de-viola, IAQGR); conditions: 960 g ai/ha
Method: as §1, §2, §3, §4

O=C(O)CNCP(=O)(O)O [Glyphosate DMA salt, N-(phosphonomethyl)glycine]
Mean % weed control [1]: 62.0%
Mean % weed control ([2]; 9DAA): 11.7% and 10.0%
Mean % weed control ([2]; 12DAA): 43.3%
Mean % weed control ([2]; 14DAA): 40.0% and 36.7% and 23.3%
Mean % weed control ([2]; 15DAA): 48.3%
Mean % weed control ([2]; 23DAA): 31.7%
Mean % weed control ([2]; 35DAA): 25.0%
Mean % weed control ([2]; 40DAA): 46.7%
Mean % weed control ([2]; 54DAA): 23.3%
Mean % weed control ([2]; 67DAA): 20.0%
Mean % weed control ([3]; 30DAA): 28.8%
Mean % weed control ([3]; 32DAA): 32.5%
Mean % weed control ([3]; 46DAA): 25.0%
Mean % weed control ([3]; 47DAA): 28.8%
Mean % weed control ([3]; 62DAA): 20.0%
Mean % weed control ([4]; 19DAA): 19.0%
Mean % weed control ([4]; 29DAA): 17.0%
Mean % weed control ([4]; 46DAA): 15.7%
Mean % weed control ([5]; 18DAA): 16.7%
Mean % weed control ([5]; 38DAA): 16.7%
Mean % weed control ([6]; 7DAA): 38.8%
Mean % weed control ([6]; 14DAA): 52.5%
Mean % weed control ([6]; 28DAA): 18.8%
Mean % weed control ([6]; 35DAA): 7.5%
Mean % weed control ([7]; 14DAA): 40.0%
Mean % weed control ([7]; 19DAA): 43.8%
Mean % weed control ([7]; 28DAA): 45.0%
Mean % weed control ([7]; 35DAA): 53.8%
Mean % weed control ([7]; 42DAA): 48.8%
